Calls of active or inactive are those of the source.
What was measured:
Type in all cases: cell-based
[1] = test system: Cystic fibrosis transmembrane conductance regulator (Homo sapiens), P13569 [F508del]; assay: Corrector activity at CFTR F508del mutant (unknown origin) expressed in human CFBE41o cells assessed as iodide influx at 10 uM after 24 hrs by HS-YFP assay
[2] = biological target: T1, Cystic fibrosis transmembrane conductance regulator (Homo sapiens, UniProt P13569); assay: Corrector activity at CFTR F508del mutant (unknown origin) expressed in human CFBE41o cells assessed as iodide influx after 24 hrs by HS-YFP assay; conditions: cfbe41o
[3] = biological target: Cystic fibrosis transmembrane conductance regulator (Homo sapiens, UniProt P13569, F508DEL); assay: (§1) Potentiator activity at CFTR F508del mutant (unknown origin) expressed in human CFBE41o cells assessed as increase in iodine influx measured after 30 mins incubation following rescue of F508del-CFTR by low temperature for 24 hrs by HS-YFP assay
[4] = biological target: T1, Cystic fibrosis transmembrane conductance regulator; assay: as §1; conditions: cfbe41o

Chain of Cystic fibrosis transmembrane conductance regulator (Homo sapiens), P13569 [F508del] (P13569 as listed by the source): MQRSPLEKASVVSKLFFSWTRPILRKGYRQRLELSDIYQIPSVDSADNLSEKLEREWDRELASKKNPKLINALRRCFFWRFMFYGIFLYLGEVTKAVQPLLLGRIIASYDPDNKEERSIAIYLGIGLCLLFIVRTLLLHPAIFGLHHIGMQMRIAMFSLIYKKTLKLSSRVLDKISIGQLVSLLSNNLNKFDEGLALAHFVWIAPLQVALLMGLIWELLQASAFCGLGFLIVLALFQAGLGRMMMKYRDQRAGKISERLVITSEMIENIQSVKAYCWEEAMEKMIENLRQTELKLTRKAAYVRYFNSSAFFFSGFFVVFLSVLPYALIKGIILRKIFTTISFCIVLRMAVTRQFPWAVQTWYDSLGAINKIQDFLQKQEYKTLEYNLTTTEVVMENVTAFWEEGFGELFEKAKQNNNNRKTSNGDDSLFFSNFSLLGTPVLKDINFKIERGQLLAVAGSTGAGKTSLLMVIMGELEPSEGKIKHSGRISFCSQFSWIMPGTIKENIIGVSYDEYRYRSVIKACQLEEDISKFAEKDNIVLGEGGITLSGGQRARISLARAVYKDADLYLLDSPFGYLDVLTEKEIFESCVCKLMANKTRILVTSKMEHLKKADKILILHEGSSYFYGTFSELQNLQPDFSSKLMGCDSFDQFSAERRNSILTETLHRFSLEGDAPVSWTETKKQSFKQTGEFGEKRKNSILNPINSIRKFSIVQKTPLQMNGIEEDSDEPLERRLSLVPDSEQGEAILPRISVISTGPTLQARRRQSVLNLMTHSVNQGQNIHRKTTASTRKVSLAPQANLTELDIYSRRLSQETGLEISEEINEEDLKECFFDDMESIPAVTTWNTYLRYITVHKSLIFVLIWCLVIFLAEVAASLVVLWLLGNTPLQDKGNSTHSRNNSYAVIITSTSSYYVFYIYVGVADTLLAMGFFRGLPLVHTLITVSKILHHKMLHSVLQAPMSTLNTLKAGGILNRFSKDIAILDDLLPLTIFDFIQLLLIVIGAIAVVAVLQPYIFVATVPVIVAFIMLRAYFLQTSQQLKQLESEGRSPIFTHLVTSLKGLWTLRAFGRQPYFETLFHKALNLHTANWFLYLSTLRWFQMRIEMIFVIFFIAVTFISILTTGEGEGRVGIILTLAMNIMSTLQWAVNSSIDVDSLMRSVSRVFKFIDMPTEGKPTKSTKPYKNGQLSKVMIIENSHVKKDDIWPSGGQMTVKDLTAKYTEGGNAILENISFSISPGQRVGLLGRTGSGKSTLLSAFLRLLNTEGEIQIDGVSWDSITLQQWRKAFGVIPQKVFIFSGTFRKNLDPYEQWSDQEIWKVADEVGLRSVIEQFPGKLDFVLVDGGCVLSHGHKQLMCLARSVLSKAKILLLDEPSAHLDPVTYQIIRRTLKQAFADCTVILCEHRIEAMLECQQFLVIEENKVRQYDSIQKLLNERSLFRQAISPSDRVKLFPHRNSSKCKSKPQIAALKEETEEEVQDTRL
T1 sequence (P13569 as listed by the source): as above
Chain of Cystic fibrosis transmembrane conductance regulator (Homo sapiens, UniProt P13569, F508DEL) (P13569 as listed by the source): as above

## CSc1cccc(Nc2nc(-c3cc(Cl)cc(OC(F)(F)F)c3)cs2)c1
[1]
  Activity: inactive

## CSc1cccc(Nc2nc(-c3ccc4c(c3)NC(=O)CS4)cs2)c1
[1]
  Activity: inactive

## CSc1cccc(Nc2nc(-c3ccc(Br)cc3)c(C)s2)c1
[1]
  Activity: inactive

## CCN(CC)c1ccc(-c2csc(Nc3cccc(SC)c3)n2)cc1
[1]
  Activity: inactive

## Brc1ccc(-c2csc(N3CCCCC3)n2)cc1
[1]
  Activity: inactive

## Brc1ccc(-c2csc(N(Cc3ccccc3)Cc3ccccc3)n2)cc1
[1]
  Activity: inactive

## CSc1cccc(Nc2nc(-c3cn(-c4ccccc4)c(C)n3)cs2)c1
[1]
  Activity: inactive

## CSc1cccc(Nc2nc(-c3ccc(Cl)cc3)c(-c3ccc(C)cc3)s2)c1
[1]
  Activity: inactive

## CSc1cccc(Nc2nc(-c3cc(Cl)cc(Cl)c3O)cs2)c1
[1]
  Activity: inactive

## Sc1cccc(Nc2nc(-c3cccc(Cl)c3)cs2)c1
[1]
  Activity: inactive

## CSc1cccc(Nc2nc(-c3cc(OC(C)=O)c(OC(C)=O)c(OC(C)=O)c3)cs2)c1
[1]
  Activity: inactive

## CSc1cccc(Nc2nc(-c3ccc(Cl)cc3Cl)cs2)c1
[1]
  Activity: inactive

## CSc1cccc(Nc2nc(-c3ccccc3)c(C)s2)c1
[1]
  Activity: inactive

## CSc1cccc(Nc2nc(-c3ccc(-c4ccccn4)s3)cs2)c1
[1]
  Activity: inactive

## CSc1cccc(Nc2nc(-c3ccc(C(F)(F)F)cc3)cs2)c1
[1]
  Activity: inactive

## CSc1cccc(Nc2nc(-c3ccc(S(C)(=O)=O)cc3)cs2)c1
[1]
  Activity: inactive

## CCCOc1ccc(-c2csc(Nc3cccc(SC)c3)n2)cc1
[1]
  Activity: inactive

## CSc1cccc(Nc2nc(-c3nc4ccccc4n3C)cs2)c1
[1]
  Activity: inactive

## CSc1cccc(Nc2nc(-c3ccc(Cl)c([N+](=O)[O-])c3)cs2)c1
[1]
  Activity: inactive

## CSc1cccc(Nc2nc(-c3ccc(F)cc3)cs2)c1
[2]
  EC50: Not Active
[3]
  EC50: 27 µM
[1]
  Activity: inactive

## CSc1cccc(Nc2nc(-c3ccc(F)c(Cl)c3)cs2)c1
[1]
  Activity: Active

## CCCCCc1ccc(-c2csc(Nc3cccc(SC)c3)n2)cc1
[1]
  Activity: inactive

## CSc1cccc(Nc2nc(-c3cc(Cl)cc(Cl)c3F)cs2)c1
[1]
  Activity: inactive

## CSc1cccc(Nc2nc(-c3cc(Cl)ccc3O)cs2)c1
[1]
  Activity: Active

## CSc1cccc(Nc2nc(-c3ccc4c(c3)ncn4C)cs2)c1
[1]
  Activity: inactive

## CCSc1cccc(Nc2nc(-c3cccc(Cl)c3)cs2)c1
[1]
  Activity: inactive

## COc1ccc(-c2csc(Nc3cccc(SC)c3)n2)cc1Cl
[1]
  Activity: inactive

## O=C(Nc1nc(-c2ccc(Br)cc2)cs1)c1ccncc1
[1]
  Activity: inactive

## Brc1ccc(-c2csc(NCc3ccccc3)n2)cc1
[1]
  Activity: inactive

## CSc1cccc(Nc2nc(-c3ccc4c(c3)C(C)(C)CCC4(C)C)cs2)c1
[1]
  Activity: inactive

## CSc1cccc(Nc2nc3ccc(Br)cc3s2)c1
[1]
  Activity: inactive

## CSc1cccc(Nc2nc(-c3ccc(Cl)c(C)c3)cs2)c1
[1]
  Activity: inactive

## CSc1cccc(Nc2nc(-c3cccc(SC)c3)cs2)c1
[1]
  Activity: inactive

## CSc1cccc(Nc2nc(C)cs2)c1
[1]
  Activity: inactive

## CSc1cccc(Nc2nc(-c3cc(Cl)cc(C(F)(F)F)c3)cs2)c1
[4]
  EC50: Not Active
[1]
  Activity: Active

## CSc1cccc(N(C)c2nc(-c3cccc(Cl)c3)cs2)c1
[1]
  Activity: inactive

## CSc1cccc(Nc2nc(-c3cccc(OCC(=O)O)c3)cs2)c1
[1]
  Activity: inactive

## CSc1cccc(Nc2nc(-c3nccs3)cs2)c1
[2]
  EC50: Not Active
[3]
  EC50: 9.5 µM
[1]
  Activity: inactive

## O=C(Nc1nc(-c2ccc(Br)cc2)cs1)c1ccccc1O
[1]
  Activity: inactive

## CSc1cccc(Nc2nc(-c3ccc(O)c(O)c3)cs2)c1
[1]
  Activity: inactive

## CSc1cccc(Nc2nc(-c3nc(C)cs3)cs2)c1
[1]
  Activity: inactive

## CSc1cccc(Nc2nc(-c3c(Cl)ccc(F)c3Cl)cs2)c1
[1]
  Activity: inactive

## CSc1cccc(Nc2nc(-c3ccc4c(c3)OCCCO4)cs2)c1
[1]
  Activity: inactive

## CSc1cccc(Nc2nc(-c3ccc4c(c3)OCCO4)cs2)c1
[1]
  Activity: inactive

## CSc1cccc(Nc2nc(-c3ccc(F)c(Br)c3)cs2)c1
[4]
  EC50: Not Active
[1]
  Activity: Active

## O=C(Nc1nc(-c2ccc(Br)cc2)cs1)c1ccccc1
[1]
  Activity: inactive

## CSc1cccc(Nc2nc(-c3cccc(I)c3)cs2)c1
[1]
  Activity: inactive

## CSc1cccc(Nc2nc(-c3cc(F)cc(Cl)c3)cs2)c1
[1]
  Activity: inactive

## Nc1nc(-c2ccc(Br)cc2)cs1
[1]
  Activity: inactive

## Brc1ccc(-c2csc(NC3CCCCC3)n2)cc1
[1]
  Activity: inactive

## CSc1cccc(Nc2nc(-c3cc(C)cs3)cs2)c1
[1]
  Activity: inactive

## CSc1cccc(Nc2nc(-c3ccccc3Cl)cs2)c1
[1]
  Activity: inactive

## COc1ccc(-c2csc(Nc3cccc(SC)c3)n2)cc1
[1]
  Activity: inactive

## CSc1cccc(Nc2nc(-c3nc4ccccc4s3)cs2)c1
[1]
  Activity: inactive

## CSc1cccc(Nc2nc(-c3cc(OCC(=O)O)c(OCC(=O)O)c(OCC(=O)O)c3)cs2)c1
[1]
  Activity: inactive

## CSc1cccc(Nc2nc(-c3cccc(Br)c3)cs2)c1
[1]
  Activity: Active

## COc1ccc(-c2csc(Nc3cccc(SC)c3)n2)c(OC)c1
[1]
  Activity: inactive

## CSc1cccc(Nc2nc(-c3cccc(O)c3)cs2)c1
[1]
  Activity: inactive

## CSc1cccc(Nc2nc(-c3cc(Cl)c(O)c(Cl)c3)cs2)c1
[1]
  Activity: Active

## CSc1cccc(Nc2nc(-c3cnc4ccccc4c3)cs2)c1
[1]
  Activity: inactive

## CCc1ccc(Nc2nc(-c3cccc(Cl)c3)cs2)cc1SC
[1]
  Activity: Active

## CSc1cccc(Nc2nc(-c3cccc(OCC(=O)OC(C)(C)C)c3)cs2)c1
[1]
  Activity: inactive

## CSc1cccc(Nc2nc(-c3ccc([N+](=O)[O-])cc3)cs2)c1
[1]
  Activity: inactive

## CSc1cccc(Nc2nc(-c3ccccc3)c(C(=O)c3ccccc3)s2)c1
[1]
  Activity: inactive

## CSc1cccc(Nc2nc(-c3cccc(Cl)c3)c(C)s2)c1
[1]
  Activity: inactive

## CSc1cccc(Nc2nc(-c3cc4ccccc4o3)cs2)c1
[1]
  Activity: inactive

## CC(=O)Oc1ccccc1C(=O)Nc1nc(-c2ccc(Br)cc2)cs1
[1]
  Activity: inactive

## CSc1cccc(Nc2nc(-c3ccccc3C)cs2)c1
[1]
  Activity: inactive

## CSc1cccc(Nc2nc(-c3ccc(CCCl)cc3)cs2)c1
[1]
  Activity: inactive

## CSc1cccc(Nc2nc(-c3cc(Br)ccc3O)cs2)c1
[1]
  Activity: inactive

## CSc1cccc(Nc2nc(-c3ccc(C)cc3C)cs2)c1
[1]
  Activity: inactive

## CSc1cccc(Nc2nc(-c3c(-c4ccccc4)noc3C)cs2)c1
[1]
  Activity: inactive

## CCCSc1cccc(Nc2nc(-c3cccc(Cl)c3)cs2)c1
[1]
  Activity: inactive

## CSc1cccc(Nc2nc(-c3cc(C(C)(C)C)c(O)c(C(C)(C)C)c3)cs2)c1
[1]
  Activity: inactive

## COc1cc2c(cc1OC)CN(c1csc(Nc3cccc(SC)c3)n1)CC2
[1]
  Activity: inactive

## CSc1cccc(Nc2nc(-c3ccccn3)cs2)c1
[1]
  Activity: inactive

## CSc1cccc(N(Cc2ccccc2)c2nc(-c3cccc(Cl)c3)cs2)c1
[1]
  Activity: inactive

## CSc1cccc(Nc2nc(-c3ccc4c(c3)OCO4)cs2)c1
[2]
  EC50: Not Active
[3]
  EC50: 71 µM
[1]
  Activity: inactive

## CSc1cccc(Nc2nc(-c3cccnc3)cs2)c1
[1]
  Activity: inactive

## CSc1cccc(Nc2nc(-c3cccc(C)c3)cs2)c1
[1]
  Activity: inactive

## CSc1cccc(Nc2nc(-c3nnn(-c4cc(Cl)cc(Cl)c4)c3C)cs2)c1
[1]
  Activity: inactive

## CSc1cccc(Nc2nc(-c3cccc(NC(C)=O)c3)cs2)c1
[1]
  Activity: inactive

## CSc1cccc(Nc2nc(-c3cc4ccccc4oc3=O)cs2)c1
[1]
  Activity: inactive

## CSc1cccc(Nc2nc(-c3cccc([N+](=O)[O-])c3)cs2)c1
[1]
  Activity: inactive

## CSc1cccc(Nc2nc(-c3ccc4sccc4c3)cs2)c1
[1]
  Activity: Active

## CSc1cccc(Nc2nc(-c3ccco3)cs2)c1
[1]
  Activity: inactive

## CSc1cccc(Nc2nc(-c3cccc(C(F)(F)F)c3)cs2)c1
[1]
  Activity: inactive

## CSc1cccc(Nc2nc(-c3cc(-c4ccc(Cl)cc4)no3)cs2)c1
[1]
  Activity: inactive

## CSc1cccc(Nc2nc(-c3cc(C)n(-c4ccc(Cl)cc4)c3C)cs2)c1
[1]
  Activity: inactive

## CCCCCc1csc(-c2csc(Nc3cccc(SC)c3)n2)c1
[1]
  Activity: inactive

## CSc1cccc(Nc2nc(CC(=O)Nc3ccccc3)cs2)c1
[1]
  Activity: inactive

## CSc1cccc(Nc2nc(-c3cccc(Cl)c3Cl)cs2)c1
[1]
  Activity: inactive

## CSc1cccc(Nc2nc(-c3cccc(F)c3)cs2)c1
[1]
  Activity: inactive

## COc1ccccc1-c1csc(Nc2cccc(SC)c2)n1
[1]
  Activity: inactive

## CSc1cccc(Nc2nc(-c3ccc(Br)c([N+](=O)[O-])c3)cs2)c1
[1]
  Activity: inactive

## CSc1cccc(Nc2nc(Cc3ccc(Br)cc3)cs2)c1
[1]
  Activity: inactive

## CSc1cccc(Nc2nc(-c3cc(Cl)cs3)cs2)c1
[2]
  EC50: Not Active
[3]
  EC50: 15 µM
[1]
  Activity: inactive

## CSc1cccc(Nc2nc(-c3cc(Cl)ccc3Cl)cs2)c1
[1]
  Activity: inactive

## CSc1cccc(Nc2nc(-c3ccc(CC(F)(F)F)cc3)cs2)c1
[1]
  Activity: inactive

## CSc1cccc(Nc2nc(-c3ccc(C#N)cc3)cs2)c1
[2]
  EC50: Not Active
[3]
  EC50: 34 µM
[1]
  Activity: inactive

## CSc1cccc(Nc2nc(-c3cnc(CS(=O)(=O)c4ccccn4)s3)cs2)c1
[1]
  Activity: inactive

## CSc1cccc(Nc2nc(-c3ccsc3)cs2)c1
[1]
  Activity: inactive

— ChEMBL document CHEMBL3596188, “Synthesis and structure-activity relationship of aminoarylthiazole derivatives as correctors of the chloride transport defect in cystic fibrosis” (Eur J Med Chem, 2015)
